From patent US3985740A, “7-[D-(α-amino-α-phenyl-, 2-thienyl- and 3-thienylacetamido)]-3-(5-methylthiazol-2-yl)carbonylthiomethyl-3-cephem -4-carboxylic acids” (Bristol-Myers Company, priority 1974, dated 1976)
In brackets after ≈: the same amount, converted by molar mass. Where two headings read alike, the source gives them in different places.

Assays:
D. pneumoniae A9585 = assay: M.I.C. by tube dilution; type: cell-based; details: Streptococcus pneumoniae, D. pneumoniae + 5% serum, 50% Nutrient Broth - 45% Antibiotic Assay Broth, overnight 37° C.
S. aureus A9748 = assay: M.I.C. by tube dilution; type: cell-based; details: overnight 37° C.; for MIC: Staphylococcus aureus
S. aureus Smith A9537 = assay: M.I.C. by tube dilution; type: cell-based; details: Staphylococcus aureus, overnight 37° C.
K. pneumoniae A15130 = assay: M.I.C. by tube dilution; type: cell-based; details: at 10^-^4 dilution, overnight 37° C.; for MIC: Klebsiella pneumoniae, A15130
Str. pyogenes A9604 = assay: M.I.C. by tube dilution; type: cell-based; details: Streptococcus pyogenes, Str. pyogenes + 5% serum, 50% Nutrient Broth - 45% Antibiotic Assay Broth, overnight 37° C.
Ser. marcescens A20019 = assay: M.I.C. by tube dilution; type: cell-based; details: Serratia marcescens
[1] = Blood levels in the mouse after oral administration; type: in vivo; details: mouse, oral, 100 mgm./kg.; for concentration at 0.5 h / concentration at 1 h / concentration at 2 h / concentration at 3.5 h: blood, 100 mg/kg, read-out: Blood Level; for concentration at 1 h: 1 hr. after administration; for concentration at 2 h: 2 hrs. after administration; for concentration at 3.5 h: 3.5 hrs. after administration
Procedure: Blood levels in the mouse after oral administration were
determined with the following results:

E. coli Juhl A15119 = assay: M.I.C. by tube dilution; type: cell-based; details: Escherichia coli, JUHLA15119
[2] = tested on: S. aureus methicillin-resistant A15097; assay: M.I.C. by tube dilution; type: cell-based; details: at 10^-^3 dilution, overnight 37° C.; for MIC: Staphylococcus aureus
Sal. enteritidis A9531 = assay: M.I.C. by tube dilution; type: cell-based; details: at 10^-^4 dilution, overnight 37° C.; for MIC: Salmonella enterica, ENTERITIDIS
E. coli A9675 = assay: M.I.C. by tube dilution; type: cell-based; details: at 10^-^4 dilution, overnight 37° C.; for MIC: Escherichia coli, A9675
Pr. morganii A15153 = assay: M.I.C. by tube dilution; type: cell-based; details: Morganella morganii
[3] = tested on: S. aureus BX 1633-2 A9606; assay: M.I.C. by tube dilution; type: cell-based; details: overnight 37° C.; for MIC: Staphylococcus aureus
K. pneumoniae A9977 = assay: M.I.C. by tube dilution; type: cell-based; details: at 10^-^4 dilution, overnight 37° C.; for MIC: Klebsiella pneumoniae, A9977
Ps. aeruginosa A9843A = assay: M.I.C. by tube dilution; type: cell-based; details: Pseudomonas aeruginosa
Pr. mirabilis A9900 = assay: M.I.C. by tube dilution; type: cell-based; details: at 10^-^4 dilution, overnight 37° C.; for MIC: Proteus mirabilis, A9900
[4] = A9748, at 10^-^2 dilution, read-out: M.I.C.
[5] = A9748, at 10^-^3 dilution, read-out: M.I.C.
[6] = SMITHA9537, + 50% serum, at 10^-^4 dilution, read-out: M.I.C.
[7] = SMITHA9537, at 10^-^4 dilution, read-out: M.I.C.
[8] = at 10^-^4 dilution, overnight 37° C., read-out: M.I.C.
[9] = BX16332A9606, at 10^-^2 dilution, read-out: M.I.C.
[10] = BX16332A9606, at 10^-^3 dilution, read-out: M.I.C.

SMILES: Cc1csc(C(=O)SCC2=C(C(=O)O)N3C(=O)C(NC(=O)[C@H](N)c4ccccc4)[C@H]3SC2)n1 (stereo partly drawn) [Compound 556, 7-[D-α-aminophenylacetamido]-3-(4-methylthiazol-2-yl)carbonylthiomethyl-3-cephem-4-carboxylic acid]
- MIC (D. pneumoniae A9585): 1.3 µg/mL
- MIC (S. aureus A9748; [4]): 8 µg/mL (≈ 15.9 µM)
- MIC (S. aureus A9748; [5]): 4 µg/mL (≈ 7.93 µM)
- MIC (S. aureus Smith A9537; [6]): 63 µg/mL
- MIC (S. aureus Smith A9537; [7]): 1.3 µg/mL (≈ 2.58 µM)
- MIC (K. pneumoniae A15130): 125 µg/mL (≈ 248 µM)
- MIC (Str. pyogenes A9604): 2.5 µg/mL
- MIC (Ser. marcescens A20019; [8]): 63 µg/mL (≈ 125 µM)
- concentration at 0.5 h ([1]; 0.5 hrs. after administration): 15200 ng/mL
- concentration at 1 h [1]: 16200 ng/mL
- concentration at 2 h [1]: 7800 ng/mL
- concentration at 3.5 h [1]: < 2100 ng/mL
- Blood Level ([1]; 0.5 hrs. after administration): 15200 ng/mL
- MIC (E. coli Juhl A15119; [8]): 32 µg/mL (≈ 63.4 µM)
- MIC [2]: 4 µg/mL (≈ 7.93 µM)
- MIC (Sal. enteritidis A9531; read-out: M.I.C.): 1 µg/mL (≈ 1.98 µM)
- MIC (E. coli A9675; read-out: M.I.C.): 32 µg/mL (≈ 63.4 µM)
- MIC (Pr. morganii A15153): 125 µg/mL (≈ 248 µM)
- MIC [3, 9]: 4 µg/mL (≈ 7.93 µM)
- MIC [3, 10]: 1.3 µg/mL (≈ 2.58 µM)
- MIC (K. pneumoniae A9977; read-out: M.I.C.): 32 µg/mL (≈ 63.4 µM)
- MIC (Ps. aeruginosa A9843A): 125 µg/mL (≈ 248 µM)
- MIC (Pr. mirabilis A9900; read-out: M.I.C.): 32 µg/mL (≈ 63.4 µM)

SMILES: Cc1nc(C(=O)SCC2=C(C(=O)O)N3C(=O)C(NC(=O)[C@H](N)c4ccccc4)[C@H]3SC2)sc1C (stereo partly drawn) [Compound 587, 7-[D-α-aminophenylacetamido]-3-(4,5-dimethylthiazol-2-yl)carbonylthiomethyl-3-cephem-4-carboxylic acid]
- MIC (D. pneumoniae A9585): 2.5 µg/mL
- MIC (S. aureus A9748; [4]): 16 µg/mL (≈ 30.8 µM)
- MIC (S. aureus A9748; [5]): 4 µg/mL (≈ 7.71 µM)
- MIC (S. aureus Smith A9537; [6]): > 63 µg/mL
- MIC (S. aureus Smith A9537; [7]): 0.3 µg/mL (≈ 0.578 µM)
- MIC (K. pneumoniae A15130): > 125 µg/mL
- MIC (Str. pyogenes A9604): 2.5 µg/mL
- MIC (Ser. marcescens A20019): > 125 µg/mL
- concentration at 0.5 h ([1]; 0.5 hrs. after administration): 6300 ng/mL
- concentration at 1 h [1]: 8900 ng/mL
- concentration at 2 h [1]: 4300 ng/mL
- concentration at 3.5 h [1]: 2000 ng/mL
- MIC (E. coli Juhl A15119; [8]): 16 µg/mL (≈ 30.8 µM)
- MIC [2]: 4 µg/mL (≈ 7.71 µM)
- MIC (Sal. enteritidis A9531; read-out: M.I.C.): 2.5 µg/mL (≈ 4.82 µM)
- MIC (E. coli A9675; read-out: M.I.C.): 32 µg/mL (≈ 61.7 µM)
- MIC (Pr. morganii A15153): > 125 µg/mL
- MIC [3, 9]: 1 µg/mL (≈ 1.93 µM)
- MIC [3, 10]: 0.6 µg/mL (≈ 1.16 µM)
- MIC (K. pneumoniae A9977; read-out: M.I.C.): 32 µg/mL (≈ 61.7 µM)
- MIC (Ps. aeruginosa A9843A): > 125 µg/mL
- MIC (Pr. mirabilis A9900): > 125 µg/mL

SMILES: N[C@@H](C(=O)NC1C(=O)N2C(C(=O)O)=C(CSC(=O)c3cscn3)CS[C@H]12)c1ccccc1 (stereo partly drawn) [Compound 591, 7-[D-(-)α-aminophenylacetamido]-3-(thiazol-4-yl)carbonylthiomethyl-3-cephem-4-carboxylic acid]
- MIC (D. pneumoniae A9585): 0.02 µg/mL
- MIC (S. aureus A9748; [4]): 16 µg/mL (≈ 32.6 µM)
- MIC (S. aureus A9748; [5]): 4 µg/mL (≈ 8.15 µM)
- MIC (S. aureus Smith A9537; [6]): 8 µg/mL
- MIC (S. aureus Smith A9537; [7]): 0.3 µg/mL (≈ 0.612 µM)
- MIC (K. pneumoniae A15130; read-out: M.I.C.): 8 µg/mL (≈ 16.3 µM)
- MIC (Str. pyogenes A9604): 0.02 µg/mL
- MIC (Ser. marcescens A20019): 125 µg/mL (≈ 255 µM)
- concentration at 0.5 h ([1]; 0.5 hrs. after administration): 6500 ng/mL
- concentration at 1 h [1]: 7900 ng/mL
- concentration at 2 h [1]: 4400 ng/mL
- concentration at 3.5 h [1]: 3200 ng/mL
- MIC (E. coli Juhl A15119; [8]): 1 µg/mL (≈ 2.04 µM)
- MIC [2]: 2 µg/mL (≈ 4.08 µM)
- MIC (Sal. enteritidis A9531; read-out: M.I.C.): 0.16 µg/mL (≈ 0.326 µM)
- MIC (E. coli A9675; read-out: M.I.C.): 4 µg/mL (≈ 8.15 µM)
- MIC (Pr. morganii A15153; [8]): 32 µg/mL (≈ 65.2 µM)
- MIC [3, 9]: 2 µg/mL (≈ 4.08 µM)
- MIC [3, 10]: 0.6 µg/mL (≈ 1.22 µM)
- MIC (K. pneumoniae A9977; read-out: M.I.C.): 1 µg/mL (≈ 2.04 µM)
- MIC (Ps. aeruginosa A9843A): > 125 µg/mL
- MIC (Pr. mirabilis A9900; read-out: M.I.C.): 1 µg/mL (≈ 2.04 µM)

SMILES: N[C@@H](C(=O)NC1C(=O)N2C(C(=O)O)=C(CSC(=O)c3cncs3)CS[C@H]12)c1ccccc1 (stereo partly drawn) [Compound 602, 7-[D-(-)-α-aminophenylacetamido]-3-(thiazol-5-yl)carbonylthiomethyl-3-cephem-4-carboxylic acid]
- MIC (D. pneumoniae A9585): 0.6 µg/mL
- MIC (S. aureus A9748; [4]): 63 µg/mL (≈ 128 µM)
- MIC (S. aureus A9748; [5]): 8 µg/mL (≈ 16.3 µM)
- MIC (S. aureus Smith A9537; [6]): > 63 µg/mL
- MIC (S. aureus Smith A9537; [7]): 0.3 µg/mL (≈ 0.612 µM)
- MIC (K. pneumoniae A15130; read-out: M.I.C.): 32 µg/mL (≈ 65.2 µM)
- MIC (Str. pyogenes A9604): 0.6 µg/mL
- MIC (Ser. marcescens A20019): > 125 µg/mL
- concentration at 0.5 h ([1]; 0.5 hrs. after administration): 11700 ng/mL
- concentration at 1 h [1]: 17600 ng/mL
- concentration at 2 h [1]: 9700 ng/mL
- concentration at 3.5 h [1]: 3300 ng/mL
- MIC (E. coli Juhl A15119; [8]): 4 µg/mL (≈ 8.15 µM)
- MIC [2]: 4 µg/mL (≈ 8.15 µM)
- MIC (Sal. enteritidis A9531; read-out: M.I.C.): 0.3 µg/mL (≈ 0.612 µM)
- MIC (E. coli A9675; read-out: M.I.C.): 16 µg/mL (≈ 32.6 µM)
- MIC (Pr. morganii A15153): 125 µg/mL (≈ 255 µM)
- MIC [3, 9]: 16 µg/mL (≈ 32.6 µM)
- MIC [3, 10]: 1.3 µg/mL (≈ 2.65 µM)
- MIC (K. pneumoniae A9977; read-out: M.I.C.): 16 µg/mL (≈ 32.6 µM)
- MIC (Ps. aeruginosa A9843A): > 125 µg/mL
- MIC (Pr. mirabilis A9900; read-out: M.I.C.): 16 µg/mL (≈ 32.6 µM)

SMILES: CC1=C(C(=O)O)N2C(=O)[C@@H](NC(=O)[C@H](N)c3ccccc3)[C@H]2SC1 [cephalexin, reference compound]
- MIC (S. aureus A9748; A9748, at 10^-^2 dilution): 125 µg/mL (≈ 360 µM)
- MIC (S. aureus A9748; A9748, at 10^-^3 dilution): 32 µg/mL (≈ 92.1 µM)
- M.I.C. (S. aureus A9748; at 10^-^2 dilution): 63 µg/mL
- M.I.C. (S. aureus A9748; at 10^-^3 dilution): 63 µg/mL
- MIC (S. aureus Smith A9537; SMITHA9537, + 50% serum, at 10^-^4 dilution): 2.5 µg/mL
- MIC (K. pneumoniae A15130): 16 µg/mL (≈ 46.1 µM)
- M.I.C. (K. pneumoniae A15130): 32 µg/mL
- MIC (Ser. marcescens A20019): > 125 µg/mL
- MIC (E. coli Juhl A15119): 8 µg/mL (≈ 23 µM)
- MIC [2]: 32 µg/mL (≈ 92.1 µM)
- M.I.C. [2]: 63 µg/mL
- MIC (Sal. enteritidis A9531): 4 µg/mL (≈ 11.5 µM)
- M.I.C. (Sal. enteritidis A9531): 2 µg/mL
- MIC (E. coli A9675): 16 µg/mL (≈ 46.1 µM)
- M.I.C. (E. coli A9675): 32 µg/mL
- MIC (Pr. morganii A15153): > 125 µg/mL
- MIC ([3]; BX16332A9606, at 10^-^2 dilution): 8 µg/mL (≈ 23 µM)
- MIC ([3]; BX16332A9606, at 10^-^3 dilution): 4 µg/mL (≈ 11.5 µM)
- M.I.C. ([3]; at 10^-^2 dilution): 4 µg/mL
- M.I.C. ([3]; at 10^-^3 dilution): 2 µg/mL
- MIC (K. pneumoniae A9977): 8 µg/mL (≈ 23 µM)
- M.I.C. (K. pneumoniae A9977): 4 µg/mL
- MIC (Ps. aeruginosa A9843A): > 125 µg/mL
- MIC (Pr. mirabilis A9900): 4 µg/mL (≈ 11.5 µM)
- M.I.C. (Pr. mirabilis A9900): 8 µg/mL
